Measured values as given in patent US9695155B2, “Herbicidal substituted pyrimidinyloxy benzene compounds” (E. I. DU PONT DE NEMOURS AND COMPANY, priority 2013, dated 2017).

How the values were obtained:
johnsongrass = experiment: Test C postemergence; format: in vivo, Sorghum halepense
Outline: (§1)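 Plants were kept under greenhouse conditions for 13–15 days following spray. Pre-emergent application went to soil (loam–sand), post-emergent to foliage at 1–4 leaves. Evaluation: visual, percent control against untreated checks.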

large (Lg) crabgrass = experiment: Test A postemergence; format: in vivo, Digitaria sanguinalis
Outline: (§2)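 Visual 0–100 rating (100 = complete control) taken about 10 d post-treatment relative to untreated checks. Preemergence: directed soil spray on sown loam/sand pots. Postemergence: seedlings 2–10 cm, 1–2 leaf. Non-phytotoxic solvent formulation with surfactant.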

soybean = experiment: Test C postemergence; format: in vivo, Glycine max
Outline: as §1

giant foxtail [1] = experiment: Test C postemergence; format: in vivo, Setaria faberii
Outline: as §1

chickweed = experiment: Test C postemergence; format: in vivo, Stellaria media
Outline: as §1

giant foxtail [2] = experiment: Test A preemergence; format: in vivo, Setaria faberii
Outline: as §2

yellow nutsedge = experiment: Test C postemergence; format: in vivo, Cyperus esculentus
Outline: as §1

waterhemp = experiment: Test C postemergence; format: in vivo, Amaranthus rudis
Description: Seeds of plant species selected from blackgrass (Alopecurus myosuroides), Italian ryegrass (Lolium multiflorum), wheat, winter (winter wheat, Triticum aestivum), galium (catchweed bedstraw, Galium aparine), corn (Zea mays), large (Lg) crabgrass (Digitaria sanguinalis), giant foxtail (Setaria faberii), johnsongrass (Sorghum halepense), lambsquarters (Chenopodium album), morningglory (Ipomoea coccinea), yellow nutsedge (Cyperus esculentus), pigweed (Amaranthus retroflexus), ragweed (common ragweed, Ambrosia elatior), soybean (Glycine max), barnyardgrass (Echinochloa crus-galli), oilseed rape (Brassica napus), waterhemp (common waterhemp, Amaranthus rudis), kochia (Kochia scoparia), wild oat (Avena fatua), surinam grass (Brachiaria decumbens), foxtail, green (green foxtail, Setaria viridis), goosegrass (Eleusine indica), bromegrass, downy (downy bromegrass, Bromus tectorum), nightshade (eastern black nightshade, Solanum ptycanthum), cocklebur (common cocklebur, Xanthium strumarium), cupgrass, woolly (woolly cupgrass, Eriochloa villosa), bermudagrass (Cynodon dactylon), sunflower, (common oilseed sunflower, Helianthus annuus), Russian thistle (Salsola kali), and velvetleaf (Abutilon theophrasti) were planted into a blend of loam soil and sand and treated preemergence with test chemicals formulated in a non-phytotoxic solvent mixture which included a surfactant.
At the same time, plants selected from these crop and weed species and also barley, winter (winter barley, Hordeum vulgare), windgrass (Apera spica-venti), chickweed (common chickweed, Stellaria media), deadnettle (henbit deadnettle, Lamium amplexicaule), and canarygrass (littleseed canarygrass, Phalaris minor) were planted in pots containing Redi-Earth® planting medium (Scotts Company, 14111 Scottslawn Road, Marysville, Ohio 43041) comprising spaghnum peat moss, vermiculite, wetting agent and starter nutrients and treated with postemergence applications of test chemicals formulated in the same manner. Plants ranged in height from 2 to 18 cm (1- to 4-leaf stage) for postemergence treatments. Treated plants and controls were maintained in a greenhouse for 13 to 15 days, after which time all species were compared to controls and visually evaluated. Plant response ratings, summarized in Table C, are based on a scale of 0 to 100 where 0 is no effect and 100 is complete control. A dash (-) response means no test result.

[3] = 31 g ai/ha, postemergence, visual rating, scale 0 to 100 (0 no effect, 100 complete control), 13 to 15 days
[4] = 125 g ai/ha, 0 to 100 scale where 0 is no effect and 100 is complete control
[5] = Postemergence, 62 g ai/ha, scale 0 to 100 (0 no effect, 100 complete control)
[6] = Postemergence, 31 g ai/ha, scale 0 to 100 (0 no effect, 100 complete control), 13 to 15 days

Fc1cccc(Oc2ncc(Cl)cn2)c1-n1cc(Br)cn1 [Compound 178, 2-[2-(4-bromo-1H-pyrazol-1-yl)-3-fluorophenoxy]-5-chloropyrimidine]
Johnsongrass plant response rating (johnsongrass; [3]): 5
pest or weed control at 16 g/ha (johnsongrass; Sorghum halepense, post-emergence, 16 g ai/ha, postemergence, 0 is no effect, 100 is complete control, read-out: Plant response rating (0 to 100), Johnsongrass): 0%
pest or weed control at 125 g/ha (johnsongrass; Sorghum halepense, post-emergence, 125 g ai/ha, postemergence, visual rating, scale 0 to 100 (0 no effect, 100 complete control), read-out: Plant response rating, Johnsongrass): 35%
pest or weed control at 62 g/ha (johnsongrass; Sorghum halepense, post-emergence, Postemergence, 62 g ai/ha, scale 0 to 100 (0 no effect, 100 complete control), read-out: Plant response rating, Johnsongrass): 15%
Crabgrass, Large plant response rating (large (Lg) crabgrass; [4]): 90
pest or weed control at 500 g/ha (large (Lg) crabgrass; Digitaria sanguinalis, post-emergence, 240 h, 500 g ai/ha, 0 to 100 scale where 0 is no effect and 100 is complete control, read-out: Plant response rating, Crabgrass, Large): 100%
Soybean plant response rating (soybean; [3]): 70
Soybean plant response rating (crop injury, 0-100 scale) at 16 g/ha (soybean; Glycine max, post-emergence, 16 g ai/ha, postemergence, 0 is no effect, 100 is complete control): 50%
Soybean plant response rating (crop injury, 0-100 scale) at 125 g/ha (soybean; Glycine max, post-emergence, 125 g ai/ha, postemergence, visual rating, scale 0 to 100 (0 no effect, 100 complete control), read-out: Plant response rating, Soybean): 95%
Soybean plant response rating (crop injury, 0-100 scale) at 62 g/ha (soybean; Glycine max, post-emergence, Postemergence, 62 g ai/ha, scale 0 to 100 (0 no effect, 100 complete control)): 65%
pest or weed control at 16 g/ha (giant foxtail [1]; Setaria faberi, post-emergence, 16 g ai/ha, postemergence, 0 is no effect, 100 is complete control, read-out: Plant response rating (0 to 100), Foxtail, Giant): 5%
pest or weed control at 31 g/ha (giant foxtail [1]; Setaria faberi, post-emergence, 31 g ai/ha, postemergence, visual rating, scale 0 to 100 (0 no effect, 100 complete control), 13 to 15 days, read-out: Foxtail, Giant plant response rating): 5%
pest or weed control at 125 g/ha (giant foxtail [1]; Setaria faberi, post-emergence, 125 g ai/ha, postemergence, visual rating, scale 0 to 100 (0 no effect, 100 complete control), read-out: Plant response rating, Foxtail, Giant): 25%
pest or weed control at 62 g/ha (giant foxtail [1]; Setaria faberi, post-emergence, Postemergence, 62 g ai/ha, scale 0 to 100 (0 no effect, 100 complete control), read-out: Plant response rating, Foxtail, Giant): 5%
pest or weed control at 16 g/ha (chickweed; Stellaria media, post-emergence, 16 g ai/ha, postemergence, 0 is no effect, 100 is complete control, read-out: Plant response rating (0 to 100), Chickweed): 40%
pest or weed control at 31 g/ha (chickweed; Stellaria media, post-emergence, 31 g ai/ha, postemergence, visual rating, scale 0 to 100 (0 no effect, 100 complete control), 13 to 15 days, read-out: Chickweed plant response rating): 50%
pest or weed control at 125 g/ha (chickweed; Stellaria media, post-emergence, 125 g ai/ha, postemergence, visual rating, scale 0 to 100 (0 no effect, 100 complete control), read-out: Plant response rating, Chickweed): 80%
pest or weed control at 62 g/ha (chickweed; Stellaria media, post-emergence, Postemergence, 62 g ai/ha, scale 0 to 100 (0 no effect, 100 complete control), read-out: Plant response rating, Chickweed): 65%
pest or weed control at 125 g/ha (giant foxtail [2]; Setaria faberi, pre-emergence, 240 h, 125 g ai/ha, 0 to 100 scale where 0 is no effect and 100 is complete control, read-out: Plant response rating, Foxtail, Giant): 100%
pest or weed control at 500 g/ha (giant foxtail [2]; Setaria faberi, pre-emergence, 240 h, 500 g ai/ha, 0 to 100 scale where 0 is no effect and 100 is complete control, read-out: Foxtail, Giant plant response rating): 100%
Nutsedge, Yellow plant response rating (yellow nutsedge; [3]): 5
pest or weed control at 16 g/ha (yellow nutsedge; Cyperus, post-emergence, 16 g ai/ha, postemergence, 0 is no effect, 100 is complete control, read-out: Plant response rating (0 to 100), Nutsedge, Yellow): 5%
pest or weed control at 125 g/ha (yellow nutsedge; Cyperus, post-emergence, 125 g ai/ha, postemergence, visual rating, scale 0 to 100 (0 no effect, 100 complete control), read-out: Plant response rating, Nutsedge, Yellow): 10%
pest or weed control at 62 g/ha (yellow nutsedge; Cyperus, post-emergence, Postemergence, 62 g ai/ha, scale 0 to 100 (0 no effect, 100 complete control), read-out: Plant response rating, Nutsedge, Yellow): 5%
Waterhemp plant response rating (waterhemp; [3]): 90
pest or weed control at 16 g/ha (waterhemp; Amaranthus tuberculatus, post-emergence, 16 g ai/ha, postemergence, 0 is no effect, 100 is complete control, read-out: Plant response rating (0 to 100), Waterhemp): 80%
pest or weed control at 125 g/ha (waterhemp; Amaranthus tuberculatus, post-emergence, 125 g ai/ha, postemergence, visual rating, scale 0 to 100 (0 no effect, 100 complete control), read-out: Plant response rating, Waterhemp): 100%
pest or weed control at 62 g/ha (waterhemp; Amaranthus tuberculatus, post-emergence, Postemergence, 62 g ai/ha, scale 0 to 100 (0 no effect, 100 complete control), read-out: Plant response rating, Waterhemp): 90%

N#Cc1cccc(Oc2ncc(Cl)cn2)c1-n1cnc(Br)c1 [Compound 74]
Plant response rating (0 to 100), Johnsongrass (johnsongrass; 125 g ai/ha, postemergence): 25
Plant response rating (0 to 100), Johnsongrass (johnsongrass; 250 g ai/ha, postemergence): 25
Plant response rating, Johnsongrass (johnsongrass; [5]): 0
Plant response rating, Crabgrass, Large (large (Lg) crabgrass; [4]): 70
Plant response rating, Crabgrass, Large (large (Lg) crabgrass; 500 g ai/ha, 0 to 100 scale, 0 no effect, 100 complete control): 90
Plant response rating (0 to 100), Soybean (soybean; 125 g ai/ha, postemergence): 75
Plant response rating (0 to 100), Soybean (soybean; 250 g ai/ha, postemergence): 80
Plant response rating, Soybean (soybean; [6]): 40
Plant response rating, Soybean (soybean; [5]): 65
Plant response rating (0 to 100), Foxtail, Giant (giant foxtail [1]; 125 g ai/ha, postemergence): 10
Plant response rating (0 to 100), Foxtail, Giant (giant foxtail [1]; 250 g ai/ha, postemergence): 20
Plant response rating, Foxtail, Giant (giant foxtail [1]; [6]): 5
Plant response rating, Foxtail, Giant (giant foxtail [1]; [5]): 5
Plant response rating (0 to 100), Chickweed (chickweed; 125 g ai/ha, postemergence): 50
Plant response rating (0 to 100), Chickweed (chickweed; 250 g ai/ha, postemergence): 50
Plant response rating, Chickweed (chickweed; [6]): 25
Plant response rating, Chickweed (chickweed; [5]): 30
Plant response rating, Foxtail, Giant (giant foxtail [2]; [4]): 90
Foxtail, Giant plant response rating (giant foxtail [2]; 500 g ai/ha, 0 to 100 scale, 0 no effect, 100 complete control, approx. 10 days): 100
Plant response rating (0 to 100), Nutsedge, Yellow (yellow nutsedge; 125 g ai/ha, postemergence): 0
Plant response rating (0 to 100), Nutsedge, Yellow (yellow nutsedge; 250 g ai/ha, postemergence): 0
Plant response rating, Nutsedge, Yellow (yellow nutsedge; [6]): 0
Plant response rating, Nutsedge, Yellow (yellow nutsedge; [5]): 0
Plant response rating (0 to 100), Waterhemp (waterhemp; 125 g ai/ha, postemergence): 60
Plant response rating (0 to 100), Waterhemp (waterhemp; 250 g ai/ha, postemergence): 80
Plant response rating, Waterhemp (waterhemp; [6]): 35
Plant response rating, Waterhemp (waterhemp; [5]): 60
